Measurements reported in patent US9266900B2, “Additives for improved isohexide products” (ARCHER DANIELS MIDLAND COMPANY, priority 2012, dated 2016).
“And” between values parts separate entries of the source, which are not always exact repeats. Identical values can stand only once.

Legend:
[1] = Distillation of crude isosorbide mixture with added antioxidant: co-distillation and initial distillate color; assay type: physicochemical; conditions: for initial APHA color of the neat distillate: neat distillate after distillation, ASTM D1209; for additive distilled with the isosorbide / recovered in the distillate by UPLC analysis: short path distillation, oil bath 185 to 195 degrees Celsius, less than 2 torr; for antioxidant recovered in the distillate, yield: co-distilled with isosorbide
Description: A 500 mL boiling flask equipped with a Teflon stir bar was charged with 100 g of ion-exchanged (strong acid cation/strong base anion-exchanged), dewatered, molten isosorbide. While stirring, 40.02 mg of 2,6-di-tert-butyl-4-methoxyphenol (DTMP), previously dissolved in 2 mL of absolute ethanol, was added via pipette, indicating the DTMP concentration as 400 ppm in the matrix. The flask was then outfitted with a still head, condenser, and receiver, placed under a vacuum of <2 torr, and placed in a digitally controlled oil bath. The bath was gradually heated to 190 degrees Celsius while maintaining a vacuum. At a bath temperature of approximately 155 degrees, isosorbide began to distill (vapor temperature of 150 deg C.). Continuous distillation occurred for approximately 30 minutes. 45.6 grams of clear, colorless isosorbide was collected, whose APHA color was measured as 6. Quantitative analysis by UPLC determined the concentration of DTMP in the distilled isosorbide to be 503 ppm.
In this as in subsequent examples, a quantity of an antioxidant under evaluation was dissolved in 1-2 mL of absolute ethanol and then added via pipette to a crude isosorbide mixture which had been treated previously to remove ionic species therefrom. Amounts were set so that the concentration of the antioxidant in the crude isosorbide mixture was in the range of from 250 to 900 ppm by weight. The stabilized crude isosorbide mixtures were then distilled in turn in a short path, jacketed distillation apparatus consisting of a 250 cc 3 neck boiling flask containing a PTFE magnetic stir bar in which one neck was fitted with a rubber septum, a thermocouple extended into the mixture being distilled from a central neck, and the third neck was equipped with the short path head leading to a boiling flask receiver maintained at 80 degrees Celsius. The boiling flask was immersed in an oil bath maintained at from 185 to 195 degrees Celsius, and distillation occurred under a vacuum pressure of less than 2 torr.

[2] = Heating of isosorbide distillate in 200° C. oil bath for 1 hr under air, APHA color by UV/vis; assay type: physicochemical; conditions: 0.5 g diluted with 2 mL water
Description: About, an 11 gram sample of the isosorbide distillate was added to a glass tube and capped with a septum. The glass tube was then submerged in a 200° C. oil bath for 1 hr under air. Approximately 0.5 g of the heated distillate sample was subsequently diluted with 2 mL of water and analyzed by UV/vis to obtain an APHA color value. An APHA color of approximately 250 was observed, compared to an APHA value for a distillate sample absent the DTMP additive that was offscale (>500).
About an 11 gram sample of the isosorbide distillate was added to a glass tube and capped with a septum. The glass tube was then submerged in a 200° C. oil bath for 1 hr under air.

[3] = Thermal aging of neat distillate in 85 deg C. oven under air up to 28 days; assay type: physicochemical; conditions: for formic acid after 28 days / furfural after 28 days / APHA color after 28 days: 85 deg C.; for APHA color after 28 days: air, measured as a 20% solution; for APHA color, time zero: UV/vis; for color stability criteria after accelerated aging: 85 degrees Celsius, 4 weeks, APHA less than 200 neat distillate and less than 250 for 85% solution
Description: The DTMP-stabilized distillate was further tested for color storage stability by thermal aging over a more extended period of time, in particular, by preparing typically five 10 mL headspace vials of each of the neat distillate and an 85% solution of the distillate in water in 0.5 gram sample portions. One vial of the set of five for the neat distillate or the 85% solution was set aside as the “time zero” data point. The time zero sample was diluted with 2 mL of water and analyzed.
For the neat distillate, the APHA color of the time zero sample was less than 20 by UV/vis. All other decomposition products were less than 5 ppm. The four other vials of the neat distillate were then placed in an 85 deg C. oven trader air, and one vial was removed at 7 days, another at 14 days, another at 21 days, and the last of the four at 28 days. Once removed from the oven, each sample was allowed to cool to room temperature and diluted with 2 mL of water. The sample was then analyzed by UV/vis, UPLC, LC-MS, and GC. After 28 days, APHA color, measured as a 20% solution, was only 28. Furfural and formic acid were measured at 18 ppm and 39 ppm, respectively.
The BBTC-stabilized distillate was further tested for color storage stability by thermal aging over a more extended period of time, in particular, by preparing typically five 10 mL headspace vials of each of the neat distillate and an 85% solution of the distillate in water in 0.5 gram sample portions. One vial of the set of five for the neat distillate or the 85% solution was set aside as the “time zero” data point. The time zero sample was diluted with 2 mL of water and analyzed.
For the neat distillate, the APHA color of the time zero sample was less than 1 by UV/vis. Formic acid concentration in the time zero sample was less than 5 ppm, while furfural concentration was less than 1 ppm. The four other vials of the neat distillate were then placed in an 85 deg C. oven under air, and one vial was removed at 7 days, another at 14 days, another at 21 days, and the last of the four at 28 days. Once removed from the oven, each sample was allowed to cool to room temperature and diluted with 2 mL of water. Each sample was then analyzed by UV/vis, UPLC, LC-MS, and GC. After 28 days, APHA color, measured as a 20% solution, was 191. Furfural and formic acid were measured at 298 ppm and 6,102 ppm, respectively.

[4] = Thermal aging of 85% solution of the distillate in water at 85 deg C. up to 28 days; assay type: physicochemical; conditions: for formic acid concentration, final sample / furfural concentration, final sample / APHA color, day 28 / formic acid concentration, initially / furfural concentration, initially / APHA color, time zero: 85% solution; for formic acid concentration, final sample / furfural concentration, final sample / APHA color, day 28: 85 deg C.; for formic acid concentration, final sample / furfural concentration, final sample: 28 days; for APHA color, day 28: day 28, final diluted (20%); for formic acid concentration, initially / furfural concentration, initially: initial; for APHA color, time zero: diluted (20%)
[5] = Solubility and retention of stabilizer in isosorbide product; conditions: 85% solution isosorbide product
[6] = stable = formic acid less than 5 ppm and monoanhydrohexoses less than 50 ppm, dry weight basis; cited from earlier work
[7] = Isosorbide (100% molten) mixed with additives, heated 1-2 hours at 200 degrees Celsius, accelerated aging tests; conditions: additive screening

| Compound | initial APHA color of the neat distillate [1] | additive distilled with the isosorbide / recovered in the distillate by UPLC analysis [1] | formic acid after 28 days ([3]; neat distillate) | APHA color after 28 days ([3]; neat distillate) | formic acid concentration, time zero ([3]; neat distillate, time zero) | APHA color, time zero ([3]; neat distillate, time zero) | formic acid concentration, final sample [4] [ppm] | APHA color, day 28 [4] | formic acid concentration, initially [4] | APHA color, time zero [4] | stability of composition according to the '477 patent [6] | also measured |
| --- | --- | --- | --- | --- | --- | --- | --- | --- | --- | --- | --- | --- |
| CCCC(c1cc(C(C)(C)C)c(O)cc1C)c1cc(C(C)(C)C)c(O)cc1C [BBTC, 4,4′-butylidenebis(6-t-butyl-m-cresol)] | 10 | About 83% | 6,102 ppm | 191 | less than 5 ppm | less than 1 | 4264 | more than 500 | less than 5 ppm | less than 1 | – | APHA color after heating [2]: offscale; furfural after 28 days ([3]; neat distillate): 298 ppm; furfural concentration, time zero ([3]; neat distillate, time zero): less than 1 ppm; furfural concentration, final sample [4]: 298 ppm; furfural concentration, initially [4]: less than 1 ppm |
| COc1ccc(O)c(C(C)(C)C)c1 [BHA, butylated hydroxyanisole] | 14.1 and 14 | About 63% | 21 ppm | 40 | less than 5 ppm | less than 15 | 44 | 30 | less than 5 ppm | less than 1 | – | antioxidant recovered in the distillate, yield [1]: 63%; APHA color after heating [2]: 222; color stability criteria after accelerated aging [3]: criteria were met; solubility in 85% solution product [5]: continued good solubility |
| Cc1cc(C(C)(C)C)c(O)c(C(C)(C)C)c1 [BHT] | – | – | – | – | – | – | – | – | – | – | stable | – |
| COc1cc(C)cc(OC)c1O [DMMP, 2,6-dimethoxy-4-methylphenol] | 13 | About 84% | 74 ppm | 17 | less than 5 ppm | less than 15 | 63 | 50 | less than 5 ppm | 5 | – | antioxidant recovered in the distillate, yield [1]: 84%; APHA color after heating [2]: 205; color stability criteria after accelerated aging [3]: criteria were met; solubility in 85% solution product [5]: continued good solubility |
| COc1cccc(OC)c1O [DMP, 2,6-dimethoxyphenol] | 18.7 | – | – | – | – | – | – | – | – | – | – | antioxidant recovered in the distillate, yield [1]: 64%; color stability criteria after accelerated aging [3]: met the criterion for either the neat distillate or the 85% solution product hut not for both |
| COc1cc(C(C)(C)C)c(O)c(C(C)(C)C)c1 [DTMP, 2,6-di-tert-butyl-4-methoxyphenol] | – | – | 39 ppm | 28 | – | less than 20 | 250 | 150 | – | 0 | – | concentration of additive in the distilled isosorbide by UPLC ([1]; 400 ppm in the matrix before distillation): 503 ppm; antioxidant recovered in the distillate, yield [1]: 50%; APHA color after heating [2]: approximately 250; color stability criteria after accelerated aging [3]: met the criterion for either the neat distillate or the 85% solution product hut not for both; furfural after 28 days ([3]; neat distillate): 18 ppm; all other decomposition products, time zero ([3]; neat distillate, time zero): less than 5 ppm; 5-hydroxymethylfurfural (HMF) formation ([3]; neat stabilized sample, aged): < 5 ppm; furfural concentration, final sample [4]: 88 ppm; furfural concentration, initially [4]: less than 5 ppm; 5-hydroxymethylfurfural (HMF) formation ([4]; 85% stabilized sample, aged): < 5 ppm |
| O=P([O-])([O-])O.[Na+].[Na+] [Na2HPO4] | – | – | – | – | – | – | – | – | – | – | stable | – |
| O=B[O-].[Na+] [NaBO2] | – | – | – | – | – | – | – | – | – | – | stable | – |
| [Na+].[OH-] [NaOH] | – | – | – | – | – | – | – | – | – | – | stable | – |
| CC(C)(C)c1cc(O)ccc1O [TBHQ, tert-butylhydroquinone] | – | Virtually a quantitative recovery | 3458 ppm | 233 | less than 5 ppm | 110 | 770 | more than 500 | less than 5 ppm | less than 1 | – | furfural after 28 days ([3]; neat distillate): 182 ppm; furfural concentration, time zero ([3]; neat distillate, time zero): less than 1 ppm; furfural concentration, final sample [4]: 257 ppm; furfural concentration, initially [4]: less than 1 ppm |
| Cc1c(C)c2c(c(C)c1O)CCC(C)(C(=O)O)O2 (stereo not shown) [Trolox™, 6-hydroxy-2,5,7,8-tetramethylchromane-2-carboxylic acid] | 15 | About 26% | 3291 ppm | over 500 | less than 5 ppm | 15 | 3360 | more than 500 | less than 5 ppm | 5 | – | furfural after 28 days ([3]; neat distillate): 460 ppm; furfural concentration, time zero ([3]; neat distillate, time zero): less than 1 ppm; rate of color formation compared to control vials containing distillate alone ([3]; thermal aging, stabilized samples vs control): developed color more quickly; furfural concentration, final sample [4]: 512 ppm; furfural concentration, initially [4]: less than 1 ppm |
| C1OC1COC1COC2C(OCC3CO3)COC12 (stereo not shown) [isosorbide diglycidol ether] | – | – | – | – | – | – | – | – | – | – | – | effect on color stability of isosorbide [7]: ineffective in the absence of an antioxidant |
| C1COCCN1 [morpholine] | – | – | – | – | – | – | – | – | – | – | stable | – |
| O=C1O[C@H]([C@@H](O)CO)C(O)=C1O [vitamin C] | – | – | – | – | – | – | – | – | – | – | stable | – |
